Results reported in patent US10213415B2, “Compounds as opioid receptor modulators” (JANSSEN PHARMACEUTICA NV, priority 2004, dated 2019).

Experiments:
human mu opioid receptor = molecular target: T1, human mu opioid receptor (Homo sapiens, UniProt P35372); assay: Human Mu Opioid Receptor Binding Assay (CHO membranes, 3H-Damgo); details: read-out: hKi μ
T1 construct: purchased Perkin Elmer RBHOMM400UA; host or cells: Chinese Hamster Ovary cells (recombinant expression)
Protocol: Membranes from Chinese Hamster Ovary cells expressing the human […] opioid receptor (Perkin Elmer #RBHOMM400UA) are homogenized in assay buffer (50 mM Tris, pH 7.5 with 5 mM MgCl2) using a glass tissue grinder, Teflon pestle and a Steadfast Stirrer (Fisher Scientific). The concentration of membranes is adjusted to 300 μg/mL in assay buffer and 100 μL is dispensed into each well of the assay plate, a 96 well round bottom polypropylene plate. Compounds to be tested are solubilized in DMSO (Pierce), 10 mM, then diluted in assay buffer to 6× the desired final concentration. The ligand, ^3H-Damgo (Perkin Elmer #NET-902) is also diluted in assay buffer to 3.6 nM. In a second 96 well round bottom polypropylene plate, known as the premix plate, 60 μL of the 6× compound is combined with 60 μL of 3.6 nM ^3H-Damgo. From this premix plate 50 μL is transferred to the assay plate containing the membranes, in duplicate. The assay plate is incubated for 2 h at room temperature. A GF/C 96 well filter plate (Perkin Elmer #6005174) is pretreated with 0.3% polyethylenimine for 30 min. The contents of the assay plate are filtered through the filter plate using a Packard Filtermate Harvester, and washed 3 times with 0.9% saline that is 4° C. The filter plate is dried, the underside sealed, and 30 μL Microscint20 (Packard #6013621) added to each well. A Topcount-NXT Microplate Scintillation Counter (Packard) is used to measure emitted energies in the range of 2.9 to 35 KeV. […] Nonspecific binding is determined in the presence of 1 μM unlabelled Damgo (Tocris #1171).

[1] = molecular target: T2, human delta subtype 2 opioid receptor (Homo sapiens, UniProt P41143); assay: Human Delta Opioid Receptor Binding Assay (CHO membranes, 3H-Naltrindole); details: read-out: hKi δ
T2 construct: purchased Perkin Elmer RBHODM400UA; host or cells: Chinese Hamster Ovary cells (recombinant expression)
T2 sequence (P41143 whole entry): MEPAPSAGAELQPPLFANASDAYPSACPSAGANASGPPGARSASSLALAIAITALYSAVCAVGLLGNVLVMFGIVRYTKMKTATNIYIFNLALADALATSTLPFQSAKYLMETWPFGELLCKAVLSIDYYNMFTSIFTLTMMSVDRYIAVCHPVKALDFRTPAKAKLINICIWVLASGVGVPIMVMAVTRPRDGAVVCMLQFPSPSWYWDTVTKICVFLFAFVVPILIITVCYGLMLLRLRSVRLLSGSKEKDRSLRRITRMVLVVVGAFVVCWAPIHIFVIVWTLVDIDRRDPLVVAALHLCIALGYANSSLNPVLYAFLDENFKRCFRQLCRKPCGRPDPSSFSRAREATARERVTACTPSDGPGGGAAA
Protocol: This assay is designed to test the ability of a compound to interfere with the binding of tritiated Naltrindole to the human delta subtype 2 opioid receptor. Membranes from Chinese Hamster Ovary cells expressing the human delta subtype 2 opioid receptor (Perkin Elmer #RBHODM400UA) are homogenized in assay buffer (50 mM Tris, pH 7.5 with 5 mM MgCl2) using a glass tissue grinder, Teflon pestle and a Steadfast Stirrer (Fisher Scientific). The concentration of membranes is adjusted to 100 μg/mL in assay buffer and 100 μL is dispensed into each well of the assay plate, a 96 well round bottom polypropylene plate. Compounds to be tested are solubilized in DMSO (Pierce), 10 mM, then diluted in assay buffer to 6× the desired final concentration. The ligand, ^3H-Naltrindole (Perkin Elmer #NET-1065) is also diluted in assay buffer to 6 nM. In a second 96 well round bottom polypropylene plate, known as the premix plate, 60 μL of the 6× compound is combined with 60 μL of 6 nM ^3H-Naltrindole. From this premix plate 50 μL is transferred to the assay plate containing the membranes, in duplicate. The assay plate is incubated for 30 min at room temperature. A GF/C 96 well filter plate (Perkin Elmer #6005174) is pretreated with 0.3% polyethylenimine for 30 min. The contents of the assay plate are filtered through the filter plate using a Packard Filtermate Harvester, and washed 3 times with 0.9% saline that is 4° C. The filter plate is dried, the underside sealed, and 30 μL Microscint20 (Packard #6013621) added to each well. A Topcount-NXT Microplate Scintillation Counter (Packard) is used to measure emitted energies in the range of 2.9 to 35 KeV. Results are compared to maximum binding, wells receiving no inhibitors. Nonspecific binding is determined in the presence of 1 μM unlabelled Naltrindole (Sigma #N115).

T1 sequence (P35372 whole entry): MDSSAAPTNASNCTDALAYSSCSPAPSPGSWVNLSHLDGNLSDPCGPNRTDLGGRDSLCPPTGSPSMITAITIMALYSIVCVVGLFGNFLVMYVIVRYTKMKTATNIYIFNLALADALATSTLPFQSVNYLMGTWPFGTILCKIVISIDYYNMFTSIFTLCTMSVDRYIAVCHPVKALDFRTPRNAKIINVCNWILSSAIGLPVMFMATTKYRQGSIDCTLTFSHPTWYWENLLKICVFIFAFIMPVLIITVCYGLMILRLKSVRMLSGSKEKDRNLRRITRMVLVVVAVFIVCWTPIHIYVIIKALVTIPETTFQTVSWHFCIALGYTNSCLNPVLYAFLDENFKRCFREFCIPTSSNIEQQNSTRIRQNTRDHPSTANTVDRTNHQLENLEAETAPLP

| Compound | Ki (human mu opioid receptor) [nM] | Ki [1] [nM] |
| --- | --- | --- |
| Cc1cc(O)cc(C)c1C[C@H](N)C(=O)N(Cc1ccc(O)cc1)[C@@H](C)c1nc(-c2ccccc2)c[nH]1 [Cpd 81] | 1.7 | 15.7 |
| Cc1cc(C(N)=O)cc(C)c1C[C@H](N)C(=O)N(Cc1ccccc1)[C@@H](COCc1ccccc1)c1nc(-c2ccccc2)c[nH]1 [Cpd 64] | 117 | 1110 |
| Cc1cc(O)cc(C)c1C[C@H](N)C(=O)N(Cc1nc(-c2cccc(O)c2)c(C)[nH]1)C(C)C [Cpd 68] | 0.6 | 59 |
| Cc1cc(O)cc(C)c1C[C@H](N)C(=O)N(Cc1nc(-c2cccc(C#N)c2)c(C)[nH]1)C(C)C [Cpd 60] | 2 | 114 |
| Cc1cc(O)cc(C)c1C[C@H](N)C(=O)N(Cc1nc(-c2ccc(C(N)=O)cc2)c(C)[nH]1)C(C)C [Cpd 69] | 4.4 | 272 |
| Cc1cc(O)cc(C)c1C[C@H](N)C(=O)N(C(C)C)[C@@H](COCc1ccccc1)c1nc(-c2ccccc2)c[nH]1 [Cpd 138] | 104 | 1180 |
| Cc1cc(O)cc(C)c1C[C@H](N)C(=O)N(Cc1nc(-c2cccc(-c3ccccc3)c2)c(C)[nH]1)C(C)C [Cpd 134] | 121 | 463 |
| Cc1cc(C(N)=O)cc(C)c1C[C@H](N)C(=O)N(C1CCCCC1)[C@@H](C)c1nc(-c2ccccc2)c[nH]1 [Cpd 127] | 47 | 710 |
| Cc1cc(O)cc(C)c1C[C@H](N)C(=O)N(Cc1nc(-c2ccc(F)cc2F)c(C)[nH]1)C(C)C [Cpd 71] | 0.57 | 102 |
| Cc1cc(O)cc(C)c1C[C@H](N)C(=O)N(Cc1nc(-c2cccnc2)c(C)[nH]1)C(C)C [Cpd 124] | 1.7 | 1280 |
| Cc1[nH]c(CN(C(=O)[C@@H](N)Cc2ccc(O)cc2)C(C)C)nc1-c1ccccc1 [Cpd 154] | 1 | > 10000 |
| Cc1cc(O)cc(C)c1C[C@H](N)C(=O)N(C(C)C)[C@@H](C)c1nc(-c2ccc(F)cc2)c[nH]1 [Cpd 84] | 1.1 | 9.6 |
| Cc1cc(O)cc(C)c1C[C@H](N)C(=O)N(Cc1ccc(N(C)C)cc1)[C@@H](C)c1nc(-c2ccccc2)cn1C [Cpd 77] | 1.8 | 13.5 |
| Cc1cc(O)cc(C)c1C[C@H](N)C(=O)N(Cc1nc(Br)c(C)[nH]1)C(C)C [Cpd 65] | 0.36 | 517 |
| Cc1cc(C(N)=O)cc(C)c1C[C@H](N)C(=O)N(Cc1nc(-c2ccccc2)c[nH]1)C(C)C [Cpd 86] | 1 | 400 |
| Cc1cc(O)cc(C)c1C[C@H](N)C(=O)N(Cc1nc(-c2cccc(C(N)=O)c2)c(C)[nH]1)C(C)C [Cpd 73] | 1.9 | 151 |
| Cc1cc(O)cc(C)c1C[C@H](N)C(=O)N(CC1CCCCC1)[C@@H](C)c1nc(-c2ccccc2)c[nH]1 [Cpd 56] | 65.3 | 225 |
| Cc1cc(O)cc(C)c1C[C@H](N)C(=O)N(Cc1nc(-c2cccc(Cl)c2)c(C)[nH]1)C(C)C [Cpd 70] | 2.6 | 85 |

| Compound | Ki (human mu opioid receptor) [nM] | Ki [1] [nM] |
| --- | --- | --- |
| Cc1cc(O)cc(C)c1C[C@H](N)C(=O)N(Cc1nc(-c2ccc(-c3ccccc3)cc2)c(C)[nH]1)C(C)C [Cpd 115] | 68 | 321 |
| Cc1cc(O)cc(C)c1C[C@H](N)C(=O)N(Cc1nc(-c2cccc(F)c2)c(C)[nH]1)C(C)C [Cpd 116] | 0.54 | 30.3 |
| Cc1cc(O)cc(C)c1C[C@H](N)C(=O)N(Cc1ccco1)[C@@H](C)c1nc(-c2ccccc2)c[nH]1 [Cpd 54] | 1.1 | 172 |
| Cc1cc(O)cc(C)c1C[C@H](N)C(=O)N(Cc1ccccc1)[C@H](c1nc(-c2ccccc2)c[nH]1)C(C)C [Cpd 106] | 150 | 279 |
| COc1ccccc1CN(C(=O)[C@@H](N)Cc1c(C)cc(O)cc1C)[C@@H](C)c1nc(-c2ccccc2)c[nH]1 [Cpd 96] | 9.7 | 14.6 |
| Cc1cc(O)cc(C)c1C[C@H](N)C(=O)N(Cc1cccc2ccccc12)[C@@H](C)c1nc(-c2ccccc2)c[nH]1 [Cpd 99] | 16 | 19.3 |
| Cc1cc(C(N)=O)cc(C)c1C[C@H](N)C(=O)N(CCc1ccccc1)[C@@H](C)c1nc(-c2ccccc2)c[nH]1 [Cpd 109] | 8.2 | 77 |
| Cc1cc(O)cc(C)c1C[C@H](N)C(=O)N(Cc1nc(-c2cccc(C(=O)N(C)C)c2)c(C)[nH]1)C(C)C [Cpd 67] | 4.5 | 438 |
| Cc1cc(O)cc(C)c1C[C@H](N)C(=O)N(Cc1nc(-c2ccc(C(=O)O)cc2)c(C)[nH]1)C(C)C [Cpd 123] | 47 | 84 |
| Cc1cc(C(N)=O)cc(C)c1C[C@H](N)C(=O)N(Cc1ccccc1)[C@@H](C)c1nc(-c2cccc(F)c2)c[nH]1 [Cpd 59] | 5.1 | 120 |
| Cc1cc(O)cc(C)c1C[C@H](N)C(=O)N(CC1CCN(C(=O)OCc2ccccc2)CC1)[C@@H](C)c1nc(-c2ccccc2)c[nH]1 [Cpd 53] | 13.1 | 96 |
| CC(C)N(C(=O)[C@@H](N)Cc1ccc(O)cc1)[C@@H](Cc1ccccc1)c1nc(-c2ccccc2)c[nH]1 [Cpd 158] | 0.23 | > 10000 |
| Cc1cc(O)cc(C)c1C[C@H](N)C(=O)N(Cc1ccccc1)[C@@H](CC(C)C)c1nc(-c2ccccc2)c[nH]1 [Cpd 104] | 100 | 484 |
| Cc1cc(C(N)=O)cc(C)c1C[C@H](N)C(=O)N(CCCc1ccccc1)[C@@H](C)c1nc(-c2ccccc2)c[nH]1 [Cpd 108] | 23.5 | 43.3 |
| Cc1cc(O)cc(C)c1CC(N)C(=O)Oc1cc(C)c(C[C@H](N)C(=O)N(C(C)C)[C@@H](CC(C)C)c2nc(-c3ccccc3)c[nH]2)c(C)c1 (stereo partly drawn) [Cpd 139] | 58 | 1260 |
| Cc1cc(O)cc(C)c1C[C@H](N)C(=O)N(Cc1nc(-c2ccc(N(C)C)cc2)c(C)[nH]1)C(C)C [Cpd 66] | 6.5 | 550 |
| CC(C)N(C(=O)[C@@H](N)Cc1cccc(C#N)c1)[C@@H](Cc1ccccc1)c1nc(-c2ccccc2)c[nH]1 [Cpd 157] | 2.2 | > 10000 |
| CC(C)[C@@H](c1nc(-c2ccccc2)c[nH]1)N(C(=O)[C@@H](N)Cc1cccc(C#N)c1)C(C)C [Cpd 160] | > 1000 | > 10000 |
